Laboratory results reported in paper PMC4019984, “Kinase and channel activity of TRPM6 are co-ordinated by a dimerization motif and pocket interaction” (Biochemical Journal, 2014).

Tests used:
[1] = target: T1, GST-tagged TRPM6-(1730–end) (Homo sapiens, UniProt Q9BX84); assay: Peptide pull-down, TRPM6-(1730–end); format: binding; conditions: HEK-293 lysate 1–5 mg, 3 μg biotinylated peptide, 10 min at 4°C, streptavidin beads; anti-GST immunoblot
T1 construct: E. coli-purified GST-tagged TRPM6-(1730–end); made in house; host or cells: E. coli BL21
T1 sequence (Q9BX84 1730-2022 limits assumed): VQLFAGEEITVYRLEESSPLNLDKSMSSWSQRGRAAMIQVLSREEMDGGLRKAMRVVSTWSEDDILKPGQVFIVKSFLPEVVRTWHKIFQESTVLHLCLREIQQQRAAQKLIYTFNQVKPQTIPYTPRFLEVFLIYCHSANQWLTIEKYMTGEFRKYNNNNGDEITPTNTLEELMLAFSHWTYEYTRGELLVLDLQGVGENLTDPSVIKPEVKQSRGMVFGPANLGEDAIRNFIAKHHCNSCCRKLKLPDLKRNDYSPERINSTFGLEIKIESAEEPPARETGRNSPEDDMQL
Method: (§1) The peptides biotin-C6-[…]-TIPFTPVQLFAGEEITV (wild-type) and biotin-C6-LKSPQE-[…] (mutant) were purchased from GL Biochem. For a peptide pull-down, 1–5 mg of lysate was incubated with 3 μg of the respective peptide for 10 min at 4°C under gentle agitation, followed by 5 min of incubation with 10–20 μl of streptavidin beads at 4°C. The immunoprecipitates were washed three times with lysis buffer containing 0.15 M NaCl and then twice with buffer A. Proteins were eluted by resuspending washed immunoprecipitates in 30 μl of SDS sample buffer.
(Figure 2A). We next utilized fluorescence polarization technology, a sensitive method to evaluate interactions between proteins and peptides. Using this methodology, we first evaluated how polarization of a fluorescently labelled peptide encompassing the dimerization motif was affected by titration of TRPM6-(1730–end) (which lacks the dimerization motif). […]
Figure 2 Identification of dimerization motif residues in TRPM6 (A) Structural model of TRPM7 α-kinase depicting the N-terminal non-catalytic α-helix of one monomer that interacts with the kinase segment of the other monomer. (B) Fluorescence polarization analysis of wild-type (WT) and mutant (Mut) dimerization motif peptides with E. coli-purified GST-tagged TRPM6-(1730–end). […] The samples were analysed by immunoblotting with anti-GST antibody (top panel). […]

[2] = tested on: GST-tagged TRPM6-(1730–end) A1836N; assay: Peptide pull-down, A1836N mutant; format: binding, human; conditions: HEK-293 lysate, 3 μg peptide, 4°C, anti-GST immunoblot
Method: as §1, with “buffer. […]” for “buffer.”
(§2) Figure 3 Analysis of the dimerization pocket residues (A) Structural model of TRPM6 based on TRPM7 α-kinase depicting the binding of Leu^1718 and Leu^1721 to other residues in the α-kinase domain. […] The samples were analysed by immunoblotting with anti-GST antibody (top panel). […] (C) Fluorescence polarization analysis of the dimerization motif peptide with E. coli purified GST-tagged TRPM6-(1730–end) and indicated mutants. […] Proteins were separated by SDS/PAGE, stained with Coomassie Blue (top and middle panels) and MBP phosphorylation was detected by autoradiography (bottom panel). […] Proteins were separated by SDS/PAGE, stained with Coomassie Blue (top and middle gels) and MBP phosphorylation was detected by autoradiography (bottom gel). […]

[3] = tested on: GST-tagged TRPM6-(1730–end) L1840A; assay: Peptide pull-down, L1840A mutant; format: binding, human; conditions: HEK-293 lysate, 3 μg peptide, 4°C, anti-GST immunoblot
Method: as §1, with “buffer. […]” for “buffer.”
as §2

[4] = tested on: GST-tagged TRPM6-(1730–end) L1743A; assay: Peptide pull-down, L1743A mutant; format: binding, human; conditions: HEK-293 lysate, 3 μg peptide, 4°C, anti-GST immunoblot
Method: as §1, with “buffer. […]” for “buffer.”
as §2

[5] = tested on: GST-tagged TRPM6-(1730–end) L1919Q; assay: Peptide pull-down, L1919Q mutant; format: binding, human; conditions: HEK-293 lysate, 3 μg peptide, 4°C, anti-GST immunoblot
Method: as §1, with “buffer. […]” for “buffer.”
as §2

[6] = tested on: full-length FLAG-tagged kinase-inactive TRPM6; assay: Peptide pull-down, full-length kinase-inactive TRPM6; format: binding, human; conditions: full-length kinase-inactive TRPM6, HEK-293 lysate, 3 μg peptide, 4°C; anti-FLAG immunoblot
Method: as §1
Figure 2 Identification of dimerization motif residues in TRPM6 (A) Structural model of TRPM7 α-kinase depicting the N-terminal non-catalytic α-helix of one monomer that interacts with the kinase segment of the other monomer. (B) Fluorescence polarization analysis of wild-type (WT) and mutant (Mut) dimerization motif peptides with E. coli-purified GST-tagged TRPM6-(1730–end). […] The samples were analysed by immunoblotting with anti-GST antibody (top panel). […] Proteins were separated by SDS/PAGE, stained with Coomassie Blue (top and middle gels) and MBP phosphorylation was detected by autoradiography (bottom gel). […] Proteins were separated by SDS/PAGE, stained with Coomassie Blue (top and middle gels) and MBP phosphorylation was detected by autoradiography (bottom gel). […] The pull-down samples were analysed by immunoblotting with anti-FLAG antibody (top panel). […]

## biotin-C6-LKSPQEPHHHYSAIERNNLMRLSQ-TIPFTPVQLFAGEEITV [biotinylated dimerization motif peptide, biotin-C6 wild-type dimerization motif peptide; conjugated to streptavidin–Sepharose]
[1]
  affinity purification of TRPM6-(1730–end) (pull-down): could efficiently purify TRPM6-(1730–end)
[2]
  binding to biotinylated dimerization motif peptide (pull-down): abolished binding to the peptide
[3]
  binding to biotinylated dimerization motif peptide (pull-down): abolished binding to the peptide
[4]
  binding to biotinylated dimerization motif peptide (pull-down): abolished binding to the peptide
[5]
  binding to biotinylated dimerization motif peptide (pull-down): abolished binding to the peptide
[6]
  interaction with biotinylated dimerization motif peptide (pull-down): do not interact
